In experiment [1] the target is Tyrosine-protein kinase SYK (Homo sapiens, UniProt P43405). As to the kind of experiment: Selectivity interaction (Upstate Kinase Profiler service (Millipore)) EUB0000056c SYK. To be noted: at 1 µM.
The target in experiment [2] is T1, Serine/threonine-protein kinase NLK (Homo sapiens) (UniProt Q9UBE8).
T1 sequence (whole entry): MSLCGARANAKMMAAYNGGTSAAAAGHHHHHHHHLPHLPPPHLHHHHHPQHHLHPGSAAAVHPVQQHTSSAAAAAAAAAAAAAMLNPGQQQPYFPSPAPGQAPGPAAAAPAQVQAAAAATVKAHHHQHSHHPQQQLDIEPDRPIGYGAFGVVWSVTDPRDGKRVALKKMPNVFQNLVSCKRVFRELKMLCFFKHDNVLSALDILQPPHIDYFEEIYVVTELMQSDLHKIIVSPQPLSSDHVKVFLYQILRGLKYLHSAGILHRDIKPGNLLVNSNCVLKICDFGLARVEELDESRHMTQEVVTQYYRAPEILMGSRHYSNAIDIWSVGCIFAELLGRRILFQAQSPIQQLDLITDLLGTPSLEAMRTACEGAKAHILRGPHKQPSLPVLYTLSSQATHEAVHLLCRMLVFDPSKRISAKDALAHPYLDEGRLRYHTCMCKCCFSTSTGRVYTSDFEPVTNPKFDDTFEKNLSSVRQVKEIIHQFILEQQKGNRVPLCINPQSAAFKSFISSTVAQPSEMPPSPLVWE
As to the kind of experiment: Selectivity interaction (Upstate Kinase Profiler service (Millipore)) EUB0000056c NLK. To be noted: at 1 µM.

Experiment [3] addresses CDK8/Cyclin C (Homo sapiens) (UniProt P49336+P24863). As to the kind of experiment: Selectivity interaction (ProQinase) EUB0000171b CDK8. Format: protein-complex assay.
For experiment [4], the target named is Tyrosine-protein kinase Fes/Fps (Homo sapiens) (UniProt P07332). As to the kind of experiment: Selectivity interaction (Ambit KINOMEscan and KiNATiv profiling in Jurkat cells) EUB0000090b FES. Format: cell-based. As to conditions: at 1 µM.
Experiment [5] concerns the target Tyrosine-protein kinase receptor UFO (Homo sapiens) (UniProt P30530). In words: Selectivity interaction (Ambit KINOMEscan and KiNATiv profiling in Jurkat cells) EUB0000090b AXL. Format: cell-based. As to conditions: at 1 µM.
For experiment [6], the target named is Serine/threonine-protein kinase 32C (Homo sapiens) (UniProt Q86UX6). As to the kind of experiment: Selectivity interaction (KinomeScan (DiscoverX)) EUB0001079a STK32C. To be noted: at 1 µM.
The subject of experiment [7] is ALK tyrosine kinase receptor (Homo sapiens), Q9UM73 [C1156Y]. As to the kind of experiment: (§1) Selectivity interaction (KinomeScan (DiscoverX)) EUB0001079a ALK. To be noted: at 1 µM.
The target of experiment [8] is ALK tyrosine kinase receptor (Homo sapiens, UniProt Q9UM73). The description is as §1. To be noted: at 1 µM.
For experiment [9], the system named is ALK tyrosine kinase receptor (Homo sapiens), Q9UM73 [L1196M]. The description is as §1. As to conditions: at 1 µM.
For experiment [10], the target named is Serine/threonine-protein kinase PLK1 (Homo sapiens, UniProt P53350). As to the kind of experiment: Selectivity interaction (KinomeScan (DiscoverX)) EUB0000695a PLK1. As to conditions: at 100 nM.
The target of experiment [11] is Mitogen-activated protein kinase kinase kinase kinase 5 (Homo sapiens) (UniProt Q9Y4K4). As to the kind of experiment: Selectivity interaction (KinomeScan (DiscoverX)) EUB0000045b MAP4K5.
Experiment [12] deals with Ribosomal protein S6 kinase alpha-5 (Homo sapiens) (UniProt O75582). In words: Selectivity interaction (Kinase panel (Z-LYTE Assay)) EUB0001632a RPS6KA5. To be noted: at 10 µM.
In experiment [13] the target is Casein kinase I isoform alpha (Homo sapiens, UniProt P48729). In words: Selectivity interaction (Kinase panel (Z-LYTE Assay)) EUB0001632a CSNK1A1. As to conditions: at 10 µM.
Experiment [14] has as its target cAMP-dependent protein kinase catalytic subunit beta (Homo sapiens) (UniProt P22694). In words: Selectivity interaction (KinomeScan (DiscoverX)) EUB0000607a PRKACB. As to conditions: at 10 µM.
Experiment [15] concerns the target Mitogen-activated protein kinase kinase kinase 20 (Homo sapiens) (UniProt Q9NYL2). In words: Selectivity interaction (KinomeScan (DiscoverX)) EUB0000607a MAP3K20. To be noted: at 10 µM.
In experiment [16] the target is Protein kinase C theta type (Homo sapiens, UniProt Q04759). In words: Selectivity interaction (KinomeScan (DiscoverX)) EUB0000607a PRKCQ. As to conditions: at 10 µM.
Experiment [17] has as its target Phosphatidylinositol 4-kinase beta (Homo sapiens, UniProt Q9UBF8). As to the kind of experiment: Selectivity interaction (ActivX KiNativ screen (kinase selectivity in THP-1 cell lysates)) EUB0000639a PI4KB. Format: subcellular. To be noted: lysate, at 0.2 µM.
Experiment [18] deals with Calcium/calmodulin-dependent protein kinase kinase 2 (Homo sapiens) (UniProt Q96RR4). As to the kind of experiment: Selectivity interaction (KinomeScan (DiscoverX)) EUB0000595a CAMKK2. To be noted: at 10 µM.
Experiment [19] concerns the target T2, Serine/threonine-protein kinase greatwall (Homo sapiens) (UniProt Q96GX5).
T2 sequence (whole entry): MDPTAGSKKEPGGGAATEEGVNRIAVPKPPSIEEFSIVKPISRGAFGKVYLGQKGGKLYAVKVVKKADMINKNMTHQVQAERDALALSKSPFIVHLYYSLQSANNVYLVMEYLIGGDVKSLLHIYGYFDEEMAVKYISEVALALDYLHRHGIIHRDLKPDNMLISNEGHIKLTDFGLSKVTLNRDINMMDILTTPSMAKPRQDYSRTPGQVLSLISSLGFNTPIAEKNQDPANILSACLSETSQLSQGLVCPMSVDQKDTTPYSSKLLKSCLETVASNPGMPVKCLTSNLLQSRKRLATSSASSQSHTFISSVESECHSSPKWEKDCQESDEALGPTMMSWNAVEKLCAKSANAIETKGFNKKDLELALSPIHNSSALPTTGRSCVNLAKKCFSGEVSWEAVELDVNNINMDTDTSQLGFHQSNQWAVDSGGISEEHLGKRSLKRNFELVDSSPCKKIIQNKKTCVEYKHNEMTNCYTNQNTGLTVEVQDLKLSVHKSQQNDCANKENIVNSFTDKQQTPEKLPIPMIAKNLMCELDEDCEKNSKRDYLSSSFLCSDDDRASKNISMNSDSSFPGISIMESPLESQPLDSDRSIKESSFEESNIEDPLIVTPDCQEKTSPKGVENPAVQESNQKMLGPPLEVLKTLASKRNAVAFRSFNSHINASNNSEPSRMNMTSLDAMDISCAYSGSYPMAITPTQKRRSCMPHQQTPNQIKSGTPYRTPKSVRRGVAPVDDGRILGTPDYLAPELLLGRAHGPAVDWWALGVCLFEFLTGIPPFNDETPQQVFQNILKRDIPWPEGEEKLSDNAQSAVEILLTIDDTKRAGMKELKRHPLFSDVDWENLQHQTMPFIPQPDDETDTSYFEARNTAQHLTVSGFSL
As to the kind of experiment: Selectivity interaction (Kinase panel (KiNativ target engagement assay in Jurkat cells)) EUB0001635a MASTL. To be noted: at 1 µM. Type of experiment: cell-based.

Mitogen-activated protein kinase kinase kinase kinase 5 (Homo sapiens), sequence (Q9Y4K4 whole entry, looked up): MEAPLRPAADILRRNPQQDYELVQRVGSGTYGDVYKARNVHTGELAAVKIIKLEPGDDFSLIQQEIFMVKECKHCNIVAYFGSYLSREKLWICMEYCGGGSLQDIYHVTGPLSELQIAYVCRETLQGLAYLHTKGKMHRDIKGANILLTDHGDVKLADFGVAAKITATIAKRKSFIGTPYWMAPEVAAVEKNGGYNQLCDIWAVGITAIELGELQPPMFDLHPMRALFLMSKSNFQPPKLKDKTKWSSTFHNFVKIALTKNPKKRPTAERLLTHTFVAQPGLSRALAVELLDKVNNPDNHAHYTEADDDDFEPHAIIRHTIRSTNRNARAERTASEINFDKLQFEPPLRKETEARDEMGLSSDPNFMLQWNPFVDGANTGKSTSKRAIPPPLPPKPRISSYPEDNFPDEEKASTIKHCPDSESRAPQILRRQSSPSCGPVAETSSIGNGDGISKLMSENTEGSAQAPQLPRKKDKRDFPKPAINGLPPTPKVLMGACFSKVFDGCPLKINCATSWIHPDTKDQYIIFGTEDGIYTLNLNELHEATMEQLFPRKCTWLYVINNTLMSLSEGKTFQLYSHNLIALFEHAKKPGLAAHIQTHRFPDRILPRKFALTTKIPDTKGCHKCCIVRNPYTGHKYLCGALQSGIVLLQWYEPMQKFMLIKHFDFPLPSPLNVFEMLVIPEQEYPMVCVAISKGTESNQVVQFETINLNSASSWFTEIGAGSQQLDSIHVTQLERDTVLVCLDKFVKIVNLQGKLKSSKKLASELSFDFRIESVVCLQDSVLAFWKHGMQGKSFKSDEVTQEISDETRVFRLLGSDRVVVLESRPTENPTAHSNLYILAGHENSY
Protein kinase C theta type, sequence (Q04759 whole entry, looked up): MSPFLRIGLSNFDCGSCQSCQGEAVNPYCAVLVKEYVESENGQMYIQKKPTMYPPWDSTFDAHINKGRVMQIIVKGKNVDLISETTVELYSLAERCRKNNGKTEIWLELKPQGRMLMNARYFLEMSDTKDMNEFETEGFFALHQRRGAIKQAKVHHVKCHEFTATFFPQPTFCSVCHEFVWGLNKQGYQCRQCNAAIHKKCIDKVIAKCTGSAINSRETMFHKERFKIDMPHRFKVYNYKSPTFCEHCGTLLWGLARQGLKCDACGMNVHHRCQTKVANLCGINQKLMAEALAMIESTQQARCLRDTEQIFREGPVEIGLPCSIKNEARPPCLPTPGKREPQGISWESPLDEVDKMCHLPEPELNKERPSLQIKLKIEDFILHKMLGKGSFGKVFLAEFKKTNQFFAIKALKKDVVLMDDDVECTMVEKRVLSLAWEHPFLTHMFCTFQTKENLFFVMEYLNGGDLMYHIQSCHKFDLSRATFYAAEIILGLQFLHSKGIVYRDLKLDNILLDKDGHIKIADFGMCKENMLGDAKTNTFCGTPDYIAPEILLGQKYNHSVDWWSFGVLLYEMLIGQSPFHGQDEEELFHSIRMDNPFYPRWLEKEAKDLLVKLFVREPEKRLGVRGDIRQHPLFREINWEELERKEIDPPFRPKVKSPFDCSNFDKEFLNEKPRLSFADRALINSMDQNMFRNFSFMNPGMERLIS
Calcium/calmodulin-dependent protein kinase kinase 2 (Homo sapiens), sequence (Q96RR4 2-588 limits assumed): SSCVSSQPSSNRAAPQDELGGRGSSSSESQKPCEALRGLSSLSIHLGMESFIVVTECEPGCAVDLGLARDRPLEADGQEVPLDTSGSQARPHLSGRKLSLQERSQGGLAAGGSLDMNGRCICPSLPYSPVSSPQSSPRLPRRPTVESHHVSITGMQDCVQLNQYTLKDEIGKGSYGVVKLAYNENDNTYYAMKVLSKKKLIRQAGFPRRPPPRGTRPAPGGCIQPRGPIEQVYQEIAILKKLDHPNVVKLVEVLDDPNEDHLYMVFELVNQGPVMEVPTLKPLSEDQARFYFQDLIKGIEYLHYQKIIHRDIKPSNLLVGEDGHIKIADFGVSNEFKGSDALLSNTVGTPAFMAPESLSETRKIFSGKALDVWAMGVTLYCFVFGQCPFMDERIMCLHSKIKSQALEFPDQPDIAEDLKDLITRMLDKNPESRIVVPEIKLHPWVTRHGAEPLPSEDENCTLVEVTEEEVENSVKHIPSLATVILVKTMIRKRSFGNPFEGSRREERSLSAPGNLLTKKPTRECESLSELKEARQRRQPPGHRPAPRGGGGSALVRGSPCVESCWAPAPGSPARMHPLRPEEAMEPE
Tyrosine-protein kinase receptor UFO (Homo sapiens), sequence (P30530 whole entry): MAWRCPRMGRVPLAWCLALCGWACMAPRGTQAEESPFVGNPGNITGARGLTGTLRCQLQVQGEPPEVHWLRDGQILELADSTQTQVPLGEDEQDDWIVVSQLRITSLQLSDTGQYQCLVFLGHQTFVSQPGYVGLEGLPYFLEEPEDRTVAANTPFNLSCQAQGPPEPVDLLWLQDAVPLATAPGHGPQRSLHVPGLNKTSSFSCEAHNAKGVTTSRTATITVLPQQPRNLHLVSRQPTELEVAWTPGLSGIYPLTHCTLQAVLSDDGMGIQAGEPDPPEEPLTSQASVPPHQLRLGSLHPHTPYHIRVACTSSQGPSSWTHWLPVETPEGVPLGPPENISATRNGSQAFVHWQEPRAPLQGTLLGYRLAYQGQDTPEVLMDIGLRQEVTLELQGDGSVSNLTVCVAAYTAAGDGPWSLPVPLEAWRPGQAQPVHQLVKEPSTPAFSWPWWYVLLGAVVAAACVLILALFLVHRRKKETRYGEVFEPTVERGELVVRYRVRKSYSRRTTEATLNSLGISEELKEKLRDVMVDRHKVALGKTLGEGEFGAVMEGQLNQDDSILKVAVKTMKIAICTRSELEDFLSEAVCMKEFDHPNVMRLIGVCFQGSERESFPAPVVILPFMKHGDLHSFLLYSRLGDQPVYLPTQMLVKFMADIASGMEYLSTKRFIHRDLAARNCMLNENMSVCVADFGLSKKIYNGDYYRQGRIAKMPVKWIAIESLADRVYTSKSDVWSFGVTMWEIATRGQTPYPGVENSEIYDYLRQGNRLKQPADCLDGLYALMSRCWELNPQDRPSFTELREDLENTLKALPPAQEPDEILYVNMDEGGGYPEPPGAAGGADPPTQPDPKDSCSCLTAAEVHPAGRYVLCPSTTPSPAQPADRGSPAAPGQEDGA
ALK tyrosine kinase receptor, sequence (Q9UM73 19-1620 limits assumed): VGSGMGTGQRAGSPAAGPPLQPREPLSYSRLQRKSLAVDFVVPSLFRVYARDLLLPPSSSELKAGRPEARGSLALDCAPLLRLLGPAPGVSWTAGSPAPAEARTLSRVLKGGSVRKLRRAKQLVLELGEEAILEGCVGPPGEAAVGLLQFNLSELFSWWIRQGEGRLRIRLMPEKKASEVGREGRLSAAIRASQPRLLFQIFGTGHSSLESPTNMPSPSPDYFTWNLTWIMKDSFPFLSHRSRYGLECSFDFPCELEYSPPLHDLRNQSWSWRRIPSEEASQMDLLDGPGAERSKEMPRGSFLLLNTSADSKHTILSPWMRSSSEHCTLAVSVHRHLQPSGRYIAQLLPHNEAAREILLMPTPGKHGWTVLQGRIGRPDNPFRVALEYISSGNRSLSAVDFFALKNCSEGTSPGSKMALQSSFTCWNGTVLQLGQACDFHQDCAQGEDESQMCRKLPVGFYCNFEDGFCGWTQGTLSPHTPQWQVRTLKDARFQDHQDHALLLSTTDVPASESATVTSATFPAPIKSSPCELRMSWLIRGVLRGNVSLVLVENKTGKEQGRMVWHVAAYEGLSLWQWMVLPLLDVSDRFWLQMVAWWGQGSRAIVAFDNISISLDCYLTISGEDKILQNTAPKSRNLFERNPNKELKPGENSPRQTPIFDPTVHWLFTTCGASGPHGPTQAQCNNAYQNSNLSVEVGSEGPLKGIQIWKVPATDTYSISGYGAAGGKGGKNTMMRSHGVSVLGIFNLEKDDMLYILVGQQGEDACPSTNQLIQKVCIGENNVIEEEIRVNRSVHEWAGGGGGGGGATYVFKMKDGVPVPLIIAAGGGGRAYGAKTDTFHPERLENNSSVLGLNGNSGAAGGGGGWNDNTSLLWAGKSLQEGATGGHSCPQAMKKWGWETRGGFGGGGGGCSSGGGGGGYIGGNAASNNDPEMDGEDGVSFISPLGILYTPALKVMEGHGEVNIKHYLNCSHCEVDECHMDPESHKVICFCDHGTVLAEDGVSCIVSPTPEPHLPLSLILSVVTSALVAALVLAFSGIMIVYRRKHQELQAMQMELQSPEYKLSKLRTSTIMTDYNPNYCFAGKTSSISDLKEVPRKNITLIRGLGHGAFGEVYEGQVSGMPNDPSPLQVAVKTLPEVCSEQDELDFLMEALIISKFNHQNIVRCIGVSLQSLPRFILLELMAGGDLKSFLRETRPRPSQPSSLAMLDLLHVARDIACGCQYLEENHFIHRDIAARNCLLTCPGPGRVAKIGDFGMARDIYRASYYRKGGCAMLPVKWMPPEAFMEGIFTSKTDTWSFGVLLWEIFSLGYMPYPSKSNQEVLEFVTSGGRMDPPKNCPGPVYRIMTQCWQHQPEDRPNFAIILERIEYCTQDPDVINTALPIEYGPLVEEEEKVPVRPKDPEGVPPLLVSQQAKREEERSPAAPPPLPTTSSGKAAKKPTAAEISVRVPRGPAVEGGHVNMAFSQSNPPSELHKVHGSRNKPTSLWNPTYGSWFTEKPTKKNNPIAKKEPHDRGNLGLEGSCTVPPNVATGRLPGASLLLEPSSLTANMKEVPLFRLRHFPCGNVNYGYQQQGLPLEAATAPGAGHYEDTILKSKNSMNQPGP
Casein kinase I isoform alpha, sequence (P48729 2-337 limits assumed): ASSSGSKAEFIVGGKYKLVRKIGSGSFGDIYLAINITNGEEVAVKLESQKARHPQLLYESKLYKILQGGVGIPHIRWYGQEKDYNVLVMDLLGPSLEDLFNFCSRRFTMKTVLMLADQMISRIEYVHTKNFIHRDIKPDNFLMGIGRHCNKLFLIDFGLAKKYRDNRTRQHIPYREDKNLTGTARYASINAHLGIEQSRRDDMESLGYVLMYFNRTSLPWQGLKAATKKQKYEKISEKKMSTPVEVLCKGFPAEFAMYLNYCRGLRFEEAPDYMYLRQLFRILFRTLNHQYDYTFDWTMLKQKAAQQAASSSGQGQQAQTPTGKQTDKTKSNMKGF

For `Cc1ccc(-c2ccc3c(ccc4sc5c(c43)NC[C@@H](C)NC5=O)n2)cn1`, the % of inhibition is -7% in experiment [1] and 25% in experiment [2].

For the compound `C=CC(=O)Nc1cccc(C(=O)Nc2ccc(Nc3cc(-c4[nH]c(SC)nc4C)ccn3)cc2)c1`, the % of control in experiment [3] (at 1 µM) amounted to 67%; in experiment [3] (at 5 µM) it was 29%.

As to `CN(C)C/C=C/C(=O)Nc1ccc(C(=O)N2CCCC(Nc3ncc(Cl)c(-c4c[nH]c5ccccc45)n3)C2)cc1` (stereo unspecified), the % of control in experiment [4] came to 68%; in experiment [5] it was 92%.

Take `Nc1cnc(N2CCc3cc(S(=O)(=O)Nc4c(F)cc(Cl)cc4F)cc(N4CCCC4=O)c32)nc1` [TP-020n]: the % of control in experiment [6] was 100%; in experiment [7], 100%; in experiment [8], 100%; in [9], 81%.

`Cc1cc(F)c(C(=O)Nc2cccc(-c3nncn3C(C)C)n2)cc1-n1cnc(C2CC2)c1` had a % of control in experiment [10] of 100%.

For the compound `C=CC(=O)Nc1cc(-n2c(=O)ccc3cnc4ccc(-c5ccc(NS(C)(=O)=O)cc5)cc4c32)ccc1C`, the % of control in experiment [11] (at 1 µM) came out at 100%; in experiment [11] (at 10 µM), 74%.

Consider `Cn1cc(-n2cnc3c(NCc4nc5cc(Cl)c(Cl)cc5[nH]4)nc(N4CCOCC4)nc32)cn1`, for which the % of control came out at 0.545% in [12] and 4.57% in experiment [13].

Turning to `CNC(=O)Nc1ccc(-c2nc(N3CC4CCC(C3)O4)c3cnn(C4CCC5(CC4)OCCO5)c3n2)cc1`, the % of control in [14] was 87%; in [15], 77%; in experiment [16], 100%.

Take `CC[C@@H]1[C@H](F)C(=O)N[C@@H]1COc1nccc2cc(C(N)=O)c(OC)cc12` [ZIMLOVISERTIB]: the % of inhibition in experiment [17] was -16.4%.

For the compound `COCC(=O)NC/C=C/c1ccc2ncnc(Nc3ccc(Oc4ccc(C)nc4)c(C)c3)c2c1` [CP-724714], the % of control in experiment [18] was 85%.

For the compound `C=CC(=O)Nc1ccc(C(=O)Nc2[nH]nc3c2CN(C(=O)N[C@H](CN(C)C)c2ccccc2)C3(C)C)cc1`, in experiment [19], the % of engagement is 6.7%.

These data come from ChEMBL document CHEMBL5465560, “Selectivity Literature for EUbOPEN Chemogenomic Library” (2024).
